According to patent publication US20260242478A1, “ANTIBODIES FOR TARGETING PSMA AND CD28 AND USES THEREOF” (Janux Therapeutics, Inc., priority 2023, published 2026):

Tests used:
[1] = tested on: PSMA Fab (SEQ ID NOs: 19, 20); experiment: Kinetic binding of peptides to PSMA Fab, BLI
Procedure: Kinetic binding of the peptides of Table 9 to PSMA Fab (SEQ ID NOs: 19, 20) was evaluated using biolayer interferometry (BLI). Briefly, biotinylated peptides were loaded onto a streptavidin coated Octet® V SAX biosensor, quenched in biocytin, and baselined in buffer. […] After a short association period, sensors were transferred into buffer and the dissociation of bound Ab-1 was measured. Association and dissociation signals were recorded in real time and analyzed using a 1:1 binding model within the instrument software. Analysis using a 1:1 binding model enabled the calculation of the on and off rate constant as well as affinity, Kn.

[2] = tested on: PSMA Fab (SEQ ID NOs: 19, 20); experiment: PSMA Fab binding to peptides, ELISA; conditions: for EC50: PSMA Fab binding to biotinylated peptide, ELISA
Procedure: Peptides of Table 9 were evaluated for their ability to bind to PSMA Fab in a standard enzyme linked immunosorbent assay (ELISA) format. […] PSMA Fab diluted in buffer was then added to the peptide captured plates. Bound antibody was detected using a standard horse radish peroxidase conjugate secondary antibody.

[3] = target: anti-CD28 Fab (SEQ ID NOs: 696, 697) binding to CD28 antigen; experiment: Inhibition of anti-CD28 Fab binding to CD28 by peptides, competition ELISA (incl. alanine scanning); conditions: Table 25; anti-CD28 Fab fixed at 1 nM, 0-100 μM peptides
[4] = target: anti-CD28 Fab (SEQ ID NOs: 696, 697); experiment: anti-CD28 Fab binding to peptides, ELISA; conditions: for EC50: anti-CD28 Fab
[5] = tested on: anti-CD28 Fab (SEQ ID NOs: 696, 697); experiment: Kinetic binding of peptides to anti-CD28 Fab, BLI; conditions: for kdis / kon: Table 30, BLI; for Off rate t½: Table 26
[6] = target: anti-CD28 scFv (disulfide) (SEQ ID NO: 10) binding to CD28 antigen; experiment: Inhibition of anti-CD28 scFv (disulfide) binding to CD28 by peptides, competition ELISA; conditions: anti-CD28 scFv (disulfide) fixed at 0.3 nM, 0-100 μM peptides
[7] = target: anti-CD28 scFv harbored in Ab-15 binding to the CD28 antigen; experiment: Inhibition of Ab-15 binding to CD28 by peptides, competition ELISA; conditions: Table 20; fixed Ab-15 pre-incubated with 0-100 μM titrated peptide, CD28 antigen coated plates
Procedure: Ab-15 fixed at I nanomolar (nM) concentration was pre-incubated with 0-100 micromolar (μM) titrated peptides. After a short pre-incubation period, the mixture of titrated peptide with fixed Ab-15 were added to the CD28 antigen coated plates. After a short incubation on the plates, bound Ab-15 was detected with a standard horse radish peroxidase conjugated secondary antibody.

[8] = target: Ab-15 (anti-CD28 scFv of SEQ ID NO: 9); experiment: Ab-15 (anti-CD28 scFv) binding to peptides, ELISA; parameters: species or system human; conditions: Table 20; Ab-15 binding to plate-captured biotinylated peptide or CD28-biotin
Procedure: Ab-15 diluted in buffer was then added to the peptide captured plates. Bound antibody was detected using a standard horse radish peroxidase conjugate secondary antibody.

[9] = target: anti-CD28 scFv (disulfide) (SEQ ID NO: 10); experiment: anti-CD28 scFv (disulfide) binding to peptides, ELISA; conditions: Table 27
Procedure: Peptides were evaluated for their ability to bind to ant-CD28 Fab (SEQ ID NOs: 696.697) or anti-CD28 scFv (disulfide) (SEQ ID NO: 10) in a standard ELISA format as described above.

[10] = target: anti-CD28 scFv (SEQ ID NO: 9); experiment: Kinetic binding of anti-CD28 scFv to peptides, bio-layer interferometry (Octet RED96); conditions: Table 36; anti-CD28 scFv titrated 100-12.5 nM, 200 nM peptide loaded
Procedure: (§1) Briefly, streptavidin biosensors were loaded with biotinylated peptides and baselined in buffer. […] After a short association period, sensors were transferred into buffer and the dissociation of bound anti-CD28 scFv was measured. The timing and steps of the experiment are shown in the accompanying table. Association and dissociation signals were recorded in real time and analyzed using a 1:1 binding model within the instrument software. Analysis using a 1:1 binding model enabled the calculation of the on and off rate constants as well as affinity, KD.
as §1, with “KD. FIGS. 70A-70F illustrate kinetic binding of anti-CD28 scFv binding to peptides as measured by Octet. FIGS. 70G-70U illustrate kinetic binding of peptides to the anti-CD28 scFv as measured by Octet.” for “KD.”

Question: What does the source list for LMKWCTPRWMCAAE [Peptide-179]?
Answer: Off rate t1/2 ([1]; Table 38, 1:1 binding model): <1 min; Off rate t1/2 ([1]; Table 39, 1:1 binding model): 1.09 min; binding to the PSMA Fab [2]: strong binding; EC50 ([2]; Table 38): 5.9 nM; EC50 ([2]; Table 39): 120 nM

Question: How did the IC50 [3] turn out when LCKPGVPYKWPTCL [Peptide-156] was run?
Answer: Its IC50 is over 100000 nM.

Question: And the EC50 ([4]; Table 25)?
Answer: Its EC50 is over 1000 nM.

Question: Which results are given for YCEGHLPEYRNKCL [Peptide-132]?
Answer: EC50 ([4]; Table 26): 3.2 nM; kdis [5]: 0.0138 s⁻¹

Question: For YCAGHAWQYANKCL [Peptide-113], which IC50 ([6]; Table 29) is on record?
Answer: Its IC50 is over 100000 nM.

Question: Which IC50 ([6]; Table 29) does the source give for SCAAGASYAWPYCA [Peptide-106] here?
Answer: Its IC50 is over 100000 nM.

Question: How did the IC50 [7] turn out when CFYAEYYDQVYSFC [Peptide-18] was run?
Answer: The IC50 was 3250 nM.

Question: And the EC50 [8]?
Answer: The EC50 was 32.2 nM.

Question: Which results are given for ADWCPRERWVDCFF [Peptide-19]?
Answer: IC50 [7]: 4420 nM; EC50 [8]: 32.5 nM

Question: What does the source list for IAVLCQPNWMCAGF [Peptide-180]?
Answer: Off rate t1/2 ([1]; Table 38, 1:1 binding model): <1 min; Off rate t1/2 ([1]; Table 39, 1:1 binding model): 0.75 min; binding to the PSMA Fab [2]: strong binding; EC50 ([2]; Table 38): 33 nM

Question: Which results are given for YCEGHAPEYIAKCL [Peptide-121]?
Answer: EC50 ([4]; Table 26): 7.1 nM; kdis [5]: 0.028 s⁻¹; kon [5]: 33700 M⁻¹ s⁻¹

Question: For YCEGHLPEYREKCL [Peptide-126], which kdis [5] is on record?
Answer: The kdis was 0.0191 s⁻¹.

Question: YCEGHLPEYLAKCL [Peptide-127] was tested. Which EC50 ([4]; Table 26) did it give?
Answer: The EC50 was 1.7 nM.

Question: What about the kdis [5] of the same sequence?
Answer: Its kdis is 0.0118 s⁻¹.

Question: For SKLLCVPPWMCYHV [Peptide-194], which “Off rate t1/2” value ([1]; Table 39, 1:1 binding model) is on record?
Answer: The value was under 1 min.

Question: For LCAAGFTYPWPLCL [Peptide-155], which IC50 [3] is on record?
Answer: The IC50 was over 100000 nM.

Question: And the EC50 ([4]; Table 25)?
Answer: The EC50 was over 1000 nM.

Question: How did the EC50 ([4]; Table 26) turn out when YCEGHLPEYIWKCL [Peptide-135] was run?
Answer: The EC50 was 2.1 nM.

Question: What about the “Off rate t½” value [5] of the same sequence?
Answer: The value was 0.9 min.

Question: Which results are given for SCAAGASYAWPYCL [Peptide-92]?
Answer: EC50 [9]: > 1000 nM; binding to the anti-CD28 Fab [4]: strong binding; EC50 ([4]; Table 24): 54 nM; EC50 ([4]; Table 25): 18.9 nM; IC50 ([6]; Table 27): > 100000 nM

Question: How did the “Off rate t1/2” value ([1]; Table 39, 1:1 binding model) turn out when QCTWNEKTWWMECE [Peptide-204] was run?
Answer: The value was under 1 min.

Question: With MCQWDELNYWMDCD [Peptide-202] as the sequence, how does the “Off rate t1/2” value ([1]; Table 39, 1:1 binding model) read?
Answer: Its value is under 1 min.

Question: With MCQWDKINYWMDCD [Peptide-205] as the sequence, how does the “Off rate t1/2” value ([1]; Table 39, 1:1 binding model) read?
Answer: Its value is under 1 min.

Question: Which EC50 [9] does the source give for MDWCPRDLWVHCFA [Peptide-41] here?
Answer: The EC50 was 98.5 nM.

Question: And the EC50 ([4]; Table 24)?
Answer: The EC50 was 490 nM.

Question: What about the Kd [10] of the same sequence?
Answer: Its Kd is 42.3 nM.

Question: And the kdis [10]?
Answer: Its kdis is 0.00154 s⁻¹.

Question: What about the kon [10] of the same sequence?
Answer: Its kon is 36400 M⁻¹ s⁻¹.

Question: With YCEGHLPEYIQKCL [Peptide-134] as the sequence, how does the “Off rate t½” value [5] read?
Answer: Its value is 0.9 min.

Question: What about the kdis [5] of the same sequence?
Answer: Its kdis is 0.0115 s⁻¹.

Question: With YCEGHLPEYIEKCL [Peptide-120] as the sequence, how does the EC50 ([4]; Table 26) read?
Answer: Its EC50 is 3.1 nM.

Question: What about the kdis [5] of the same sequence?
Answer: The kdis was 0.0239 s⁻¹.

Question: What about the kon [5] of the same sequence?
Answer: Its kon is 25800 M⁻¹ s⁻¹.

Question: Which results are given for YCAGHAWQYINKCL [Peptide-87]?
Answer: EC50 [9]: 156 nM; binding to the anti-CD28 Fab [4]: strong binding; EC50 ([4]; Table 24): 49 nM; EC50 ([4]; Table 26): 30.6 nM; Off rate t½ [5]: 0.7 min; kdis [5]: 0.0202 s⁻¹; kon [5]: 10000 M⁻¹ s⁻¹
